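Results reflect a 48-hour exposure of cells in 96-well plates to compound at five concentrations. GI50 marks 50% less growth. TGI is the concentration that stops growth completely.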
Experiments:
Experiment in all cases: NCI tumour cell line growth inhibition, 48 h
[1] = test system: OVCAR-5 ovarian
[2] = test system: UACC-62 melanoma
[3] = test system: BT-549 breast
[4] = test system: CCRF-CEM leukemia
[5] = test system: MDA-MB-231 breast
[6] = test system: A498 renal
[7] = test system: HCT-116 colon
[8] = test system: SF-295 CNS
[9] = test system: OVCAR-4 ovarian
[10] = test system: SK-MEL-28 melanoma
[11] = test system: HCT-15 colon
[12] = test system: SW-620 colon
[13] = test system: RPMI-8226 leukemia
[14] = test system: K-562 leukemia
[15] = test system: HT29 colon
[16] = test system: CAKI-1 renal
[17] = test system: SNB-19 CNS
[18] = test system: RXF 393 renal
[19] = test system: OVCAR-8 ovarian
[20] = test system: HOP-92 NSCLC
[21] = test system: SN12C renal
[22] = test system: M14 melanoma
[23] = test system: U251 CNS
[24] = test system: HCC-2998 colon
[25] = test system: MALME-3M melanoma
[26] = test system: ACHN renal
[27] = test system: NCI/ADR-RES ovarian
[28] = test system: SK-MEL-2 melanoma
[29] = test system: HL-60(TB) leukemia
[30] = test system: NCI-H522 lung
[31] = test system: MDA-MB-435
[32] = test system: SK-MEL-5 melanoma
[33] = test system: SK-OV-3 ovarian
[34] = test system: KM12 colon
[35] = test system: SNB-75 CNS
[36] = test system: DU-145 prostate
[37] = test system: A549 NSCLC
[38] = test system: HS 578T breast
[39] = test system: SF-268 CNS
[40] = test system: EKVX NSCLC
[41] = test system: 786-0 renal
[42] = test system: NCI-H23 lung
[43] = test system: LOX IMVI melanoma
[44] = test system: UACC-257 melanoma
[45] = test system: TK-10 renal
[46] = test system: SF-539 CNS
[47] = test system: PC-3 prostate
[48] = test system: OVCAR-3 ovarian
[49] = test system: MCF7 breast
[50] = test system: UO-31 renal
[51] = test system: NCI-H460 lung
[52] = test system: MOLT-4 leukemia

`Cc1ccc(Sc2oc(-c3ccc(C)cc3)nc2[P+](c2ccccc2)(c2ccccc2)c2ccccc2)cc1` gave a GI50 [1] of 416 nM, a TGI [1] of 1590 nM and a GI50 [2] of 398 nM. For the same compound, the TGI [2] was 1500 nM, the GI50 [3] was 365 nM and the TGI [3] was 1370 nM. The GI50 [4] was 310 nM, the TGI [4] was 1640 nM and the GI50 [5] was 280 nM. The TGI [5] was 1030 nM, the GI50 [6] was 152 nM and the TGI [6] was 842 nM. The GI50 [7] was 260 nM, the TGI [7] was 1260 nM and the GI50 [8] was 291 nM. The TGI [8] was 1020 nM, the GI50 [9] was 280 nM and the TGI [9] was 1430 nM. It also gave a GI50 [10] of 595 nM, a TGI [10] of 1870 nM and a GI50 [11] of 310 nM. For the same compound, the TGI [11] was 1260 nM, the GI50 [12] was 338 nM and the TGI [12] was 1320 nM. It also gave a GI50 [13] of 308 nM, a TGI [13] of 1350 nM and a GI50 [14] of 302 nM. It also gave a TGI [14] of 1520 nM, a GI50 [15] of 294 nM and a TGI [15] of 1150 nM. It also gave a GI50 [16] of 283 nM, a TGI [16] of 1060 nM and a GI50 [17] of 375 nM. It also gave a TGI [17] of 1470 nM, a GI50 [18] of 316 nM and a TGI [18] of 1330 nM. The GI50 [19] was 345 nM, the TGI [19] was 1650 nM and the GI50 [20] was 178 nM. The TGI [20] was 722 nM, the GI50 [21] was 311 nM and the TGI [21] was 1210 nM. The GI50 [22] was 403 nM, the TGI [22] was 1570 nM and the GI50 [23] was 303 nM. It also gave a TGI [23] of 1410 nM, a GI50 [24] of 399 nM and a TGI [24] of 1570 nM. For the same compound, the GI50 [25] was 241 nM, the TGI [25] was 813 nM and the GI50 [26] was 311 nM. It also gave a TGI [26] of 1160 nM, a GI50 [27] of 490 nM and a TGI [27] of 2210 nM. For the same compound, the GI50 [28] was 1120 nM, the TGI [28] was 2630 nM and the GI50 [29] was 230 nM. For the same compound, the TGI [29] was 566 nM, the GI50 [30] was 148 nM and the TGI [30] was 379 nM. For the same compound, the GI50 [31] was 336 nM, the TGI [31] was 1200 nM and the GI50 [32] was 287 nM. It also gave a TGI [32] of 785 nM, a GI50 [33] of 270 nM and a TGI [33] of 1100 nM. For the same compound, the GI50 [34] was 338 nM, the TGI [34] was 1300 nM and the GI50 [35] was 154 nM. For the same compound, the TGI [35] was 846 nM, the GI50 [36] was 416 nM and the TGI [36] was 1480 nM. It also gave a GI50 [37] of 305 nM, a TGI [37] of 1240 nM and a GI50 [38] of 378 nM. For the same compound, the TGI [38] was 1980 nM, the GI50 [39] was 399 nM and the TGI [39] was 1660 nM. The GI50 [40] was 296 nM, the TGI [40] was 1260 nM and the GI50 [41] was 379 nM. The TGI [41] was 1650 nM, the GI50 [42] was 298 nM and the TGI [42] was 1020 nM. The GI50 [43] was 166 nM, the TGI [43] was 323 nM and the GI50 [44] was 303 nM. The TGI [44] was 1150 nM, the GI50 [45] was 447 nM and the TGI [45] was 1850 nM. The GI50 [46] was 404 nM, the TGI [46] was 1530 nM and the GI50 [47] was 305 nM. The TGI [47] was 1340 nM, the GI50 [48] was 359 nM and the TGI [48] was 1330 nM. For the same compound, the GI50 [49] was 286 nM, the TGI [49] was 1090 nM and the GI50 [50] was 240 nM. For the same compound, the TGI [50] was 935 nM, the GI50 [51] was 312 nM and the TGI [51] was 1120 nM. The GI50 [52] was 319 nM and the TGI [52] was 1110 nM.

Source: PubChem BioAssay (NCI)
